From ChEMBL document CHEMBL5442379, “ASAP - SARS-CoV-2 nsp3 macrodomain single point” (2024)

Target: Replicase polyprotein 1ab (Severe acute respiratory syndrome coronavirus 2) (UniProt P0DTD1)
Description: Functional biochemical assay to identify treatments for viral infectious disease that targets SARS-COV-2 nsp3 macrodomain, whereby the mechanism of action displaces an ADP-Ribose modified peptide from the binding site. Utilizing a time-resolved fluorescence method to measure binding by reading the emitted fluorescence intensity in two wavelengths.

## CC(C)n1nccc1NC(=O)c1ccc(NC(=O)Nc2ccccc2)cc1
Concentration 49.75 uM, Number of replicates 2.0, Standard deviation 2.48 %
  inhibition: -2%
Concentration 99.5 uM, Number of replicates 2.0, Standard deviation 1.778 %
  inhibition: -0.924%

## Fc1ccc(F)c(Sc2ncnc3[nH]ccc23)c1
Concentration 50.0 uM, Number of replicates 2.0, Standard deviation 6.588 %
  inhibition: -1.15%

## O=C1CCN(C(=O)c2cnn3ccc(C4CCN(C(=O)c5ccccc5)CC4)cc23)CCN1
Concentration 49.75 uM, Number of replicates 2.0, Standard deviation 0.064 %
  inhibition: -2.4%
Concentration 99.5 uM, Number of replicates 2.0, Standard deviation 5.989 %
  inhibition: -7.81%

## CO[C@@H]1CCCN(C(=O)c2cnn3ccc(C4CCN(C(=O)c5ccccc5)CC4)cc23)C1
Concentration 49.75 uM, Number of replicates 2.0, Standard deviation 1.69 %
  inhibition: 22.6%
Concentration 99.5 uM, Number of replicates 2.0, Standard deviation 3.272 %
  inhibition: 39.8%

## O=C(Nc1ccccc1)Nc1ccc(C(=O)NC2c3cccc(O)c3CC2C(=O)O)cc1 (centres undefined)
Concentration 50.0 uM, Number of replicates 2.0, Standard deviation 0.256 %
  inhibition: 99.9%

## O=C(OCc1ncccc1Cl)c1ncnc2[nH]ccc12
Concentration 50.0 uM, Number of replicates 2.0, Standard deviation 2.408 %
  inhibition: 5.06%

## O=C(OCC(Br)=C1CCOCC1)c1ncnc2[nH]ccc12
Concentration 50.0 uM, Number of replicates 2.0, Standard deviation 2.217 %
  inhibition: -5.36%

## C[C@H](NC(=O)c1ccc(NC(=O)Nc2ccccc2)cc1)[C@@H]1CCCO1
Concentration 49.75 uM, Number of replicates 2.0, Standard deviation 1.099 %
  inhibition: -4.28%
Concentration 99.5 uM, Number of replicates 2.0, Standard deviation 2.587 %
  inhibition: -4.86%

## c1ccc(Cn2ncc3c2CCC[C@@H]3Nc2ncnc3[nH]ccc23)cc1
Concentration 50.0 uM, Number of replicates 2.0, Standard deviation 3.356 %
  inhibition: 5.85%

## O=C(Nc1cnn(C2CCNCC2)c1)c1ncnc2[nH]ccc12
Concentration 50.0 uM, Number of replicates 2.0, Standard deviation 5.148 %
  inhibition: -1.9%

## Cc1noc(CCCNC(=O)c2ncnc3[nH]ccc23)n1
Concentration 50.0 uM, Number of replicates 2.0, Standard deviation 1.028 %
  inhibition: -5.13%

## Cn1cc([C@H]2CCCCN2c2ncnc3[nH]ccc23)cn1
Concentration 49.75 uM, Number of replicates 2.0, Standard deviation 3.479 %
  inhibition: 6.39%
Concentration 99.5 uM, Number of replicates 2.0, Standard deviation 0.865 %
  inhibition: 8.32%

## O=C(CCN(Cc1cccc(Cl)c1)C(=O)C1(O)CCCC1)N1CCNCC1
Concentration 49.75 uM, Number of replicates 2.0, Standard deviation 1.82 %
  inhibition: -1.21%
Concentration 99.5 uM, Number of replicates 2.0, Standard deviation 0.971 %
  inhibition: -1.78%

## CC1(C)CNCCN1C(=O)c1ccc(NC(=O)Nc2ccccc2)cc1
Concentration 49.75 uM, Number of replicates 2.0, Standard deviation 5.654 %
  inhibition: 2.24%
Concentration 99.5 uM, Number of replicates 2.0, Standard deviation 1.022 %
  inhibition: 1.39%

## O=C(N[C@@H]1CCCNC1=O)c1cnn2ccc(C3CCN(C(=O)c4ccccc4)CC3)cc12
Concentration 49.75 uM, Number of replicates 2.0, Standard deviation 2.776 %
  inhibition: -3.16%
Concentration 99.5 uM, Number of replicates 2.0, Standard deviation 2.396 %
  inhibition: -4.87%

## Cc1nc(C)c(CC(=O)Nc2cnc3[nH]ncc3c2)c(=O)[nH]1
Concentration 50.0 uM, Number of replicates 2.0, Standard deviation 0.296 %
  inhibition: 4.83%

## c1ccc2sc([C@@H]3CCCN(c4ncnc5[nH]ccc45)C3)nc2c1
Concentration 50.0 uM, Number of replicates 2.0, Standard deviation 1.364 %
  inhibition: -0.779%

## O=S(=O)(NC[C@@H]1CCCCO1)c1cn2c(n1)CCCC2
Concentration 50.0 uM, Number of replicates 2.0, Standard deviation 0.892 %
  inhibition: -5.39%

## c1ccc2sc(CNc3ncnc4[nH]ccc34)nc2c1
Concentration 50.0 uM, Number of replicates 2.0, Standard deviation 5.906 %
  inhibition: -0.671%

## c1ccc2c(-c3c[nH]c4ncccc34)n[nH]c2c1
Concentration 50.0 uM, Number of replicates 2.0, Standard deviation 4.4 %
  inhibition: -7.25%

## CN(C[C@H]1CCCN1)C(=O)c1cnn2ccc(C3CCN(C(=O)c4ccccc4)CC3)cc12
Concentration 49.75 uM, Number of replicates 2.0, Standard deviation 0.33 %
  inhibition: -7.47%
Concentration 99.5 uM, Number of replicates 2.0, Standard deviation 2.559 %
  inhibition: -6.59%

## O=C(O)c1ccc(C(=O)N2CCC(c3ccn4ncc(C(=O)N5CCCCC5)c4c3)CC2)o1
Concentration 49.75 uM, Number of replicates 2.0, Standard deviation 3.483 %
  inhibition: 40.5%
Concentration 99.5 uM, Number of replicates 2.0, Standard deviation 5.512 %
  inhibition: 58.1%

## O=C(NCCn1cncn1)c1cnn2ccc(C3CCN(C(=O)c4ccccc4)CC3)cc12
Concentration 49.75 uM, Number of replicates 2.0, Standard deviation 1.365 %
  inhibition: -3.7%
Concentration 99.5 uM, Number of replicates 2.0, Standard deviation 1.7 %
  inhibition: -2.57%

## O=C(Nc1cnc2[nH]ncc2c1)c1ccccc1CN1CCOCC1
Concentration 50.0 uM, Number of replicates 2.0, Standard deviation 2.919 %
  inhibition: -3.24%

## CN1CCC[C@H](NC(=O)c2cnn3ccc(C4CCN(C(=O)c5ccccc5)CC4)cc23)C1
Concentration 49.75 uM, Number of replicates 2.0, Standard deviation 0.821 %
  inhibition: -6.99%
Concentration 99.5 uM, Number of replicates 2.0, Standard deviation 3.447 %
  inhibition: -5.44%

## C=CCn1c(Sc2ncnc3[nH]ccc23)nc2sccc2c1=O
Concentration 50.0 uM, Number of replicates 2.0, Standard deviation 0.219 %
  inhibition: 6.3%

## Cc1c[nH]nc1C(=O)N1CCC(c2ccn3ncc(C(=O)N4CCCCC4)c3c2)CC1
Concentration 49.75 uM, Number of replicates 2.0, Standard deviation 6.018 %
  inhibition: 8.47%
Concentration 99.5 uM, Number of replicates 2.0, Standard deviation 4.753 %
  inhibition: 27.4%

## O=C1CCC[C@@H](C(=O)N(CCC(=O)N2CCNCC2)Cc2cccc(Cl)c2)N1
Concentration 49.75 uM, Number of replicates 2.0, Standard deviation 3.727 %
  inhibition: 2.42%
Concentration 99.5 uM, Number of replicates 2.0, Standard deviation 3.7 %
  inhibition: -3.31%

## Cn1cc(NC(=O)c2ccc(NC(=O)Nc3ccccc3)cc2)c(C#N)n1
Concentration 49.75 uM, Number of replicates 2.0, Standard deviation 0.991 %
  inhibition: 2.49%
Concentration 99.5 uM, Number of replicates 2.0, Standard deviation 1.521 %
  inhibition: -0.539%

## C=CCn1c(Cc2ccccc2)nnc1Sc1ncnc2[nH]ccc12
Concentration 50.0 uM, Number of replicates 2.0, Standard deviation 4.634 %
  inhibition: -7.71%

## O=C(O)c1ccsc1C(=O)N1CCC(c2ccn3ncc(C(=O)N4CCCCC4)c3c2)CC1
Concentration 49.75 uM, Number of replicates 2.0, Standard deviation 4.674 %
  inhibition: 45%
Concentration 99.5 uM, Number of replicates 2.0, Standard deviation 0.647 %
  inhibition: 61.2%

## Cc1ccc(NC(=O)c2cnn3ccc(C4CCN(C(=O)c5ccccc5)CC4)cc23)cc1C(=O)O
Concentration 49.75 uM, Number of replicates 2.0, Standard deviation 0.305 %
  inhibition: -1.05%
Concentration 99.5 uM, Number of replicates 2.0, Standard deviation 2.043 %
  inhibition: -0.624%

## CC(C)[C@@H](Nc1ncnc2[nH]ccc12)C(N)=O
Concentration 49.75 uM, Number of replicates 2.0, Standard deviation 3.584 %
  inhibition: 64.4%
Concentration 99.5 uM, Number of replicates 2.0, Standard deviation 5.819 %
  inhibition: 77.7%

## O=C(CCN(Cc1cccc(Cl)c1)C(=O)c1c[nH]c(=O)cn1)N1CCNCC1
Concentration 49.75 uM, Number of replicates 2.0, Standard deviation 1.237 %
  inhibition: -2.71%
Concentration 99.5 uM, Number of replicates 2.0, Standard deviation 0.012 %
  inhibition: 0.98%

## O=C1NC[C@@H](C(=O)N(CCC(=O)N2CCNCC2)Cc2cccc(Cl)c2)O1
Concentration 49.75 uM, Number of replicates 2.0, Standard deviation 2.173 %
  inhibition: 0.125%
Concentration 99.5 uM, Number of replicates 2.0, Standard deviation 10.437 %
  inhibition: 5.24%

## C[C@@H](NC(=O)c1cnn2ccc(C3CCN(C(=O)c4ccccc4)CC3)cc12)c1cc[nH]n1
Concentration 49.75 uM, Number of replicates 2.0, Standard deviation 1.723 %
  inhibition: -4.99%
Concentration 99.5 uM, Number of replicates 2.0, Standard deviation 0.833 %
  inhibition: -2.77%

## NC(=O)c1ccccc1NC(=O)c1ncnc2[nH]ccc12
Concentration 50.0 uM, Number of replicates 2.0, Standard deviation 0.083 %
  inhibition: -2.59%

## Cc1c(-c2cnc3nc[nH]c(=O)c3c2)ccc2[nH]ncc12
Concentration 49.75 uM, Number of replicates 2.0, Standard deviation 0.542 %
  inhibition: -3.12%
Concentration 99.5 uM, Number of replicates 2.0, Standard deviation 2.71 %
  inhibition: -4.36%

## O=C(c1ccccc1)N1CCC(c2ccn3ncc(C(=O)N4CCCC[C@H](O)C4)c3c2)CC1
Concentration 49.75 uM, Number of replicates 2.0, Standard deviation 40.732 %
  inhibition: 17.8%
Concentration 99.5 uM, Number of replicates 2.0, Standard deviation 41.407 %
  inhibition: 29.8%

## Cn1c(C(=O)N(CCC(=O)N2CCNCC2)Cc2cccc(Cl)c2)cnc1O
Concentration 49.75 uM, Number of replicates 2.0, Standard deviation 0.601 %
  inhibition: -4.76%
Concentration 99.5 uM, Number of replicates 2.0, Standard deviation 2.256 %
  inhibition: -2.76%

## O=C(O)c1sccc1C(=O)N1CCC(c2ccn3ncc(C(=O)N4CCCCC4)c3c2)CC1
Concentration 49.75 uM, Number of replicates 2.0, Standard deviation 1.624 %
  inhibition: 55.5%
Concentration 99.5 uM, Number of replicates 2.0, Standard deviation 1.425 %
  inhibition: 71.5%

## Cc1ncc(NCc2cc3n(n2)CCOC3)cc1C(N)=O
Concentration 50.0 uM, Number of replicates 2.0, Standard deviation 4.482 %
  inhibition: 0.46%

## O=C(NCc1c[nH]nn1)c1cnn2ccc(C3CCN(C(=O)c4ccccc4)CC3)cc12
Concentration 49.75 uM, Number of replicates 2.0, Standard deviation 0.251 %
  inhibition: -2.86%
Concentration 99.5 uM, Number of replicates 2.0, Standard deviation 8.51 %
  inhibition: 2.17%

## O=C(NC1CCC(F)(F)CC1)c1ncnc2[nH]ccc12
Concentration 49.75 uM, Number of replicates 2.0, Standard deviation 1.299 %
  inhibition: -3.47%
Concentration 99.5 uM, Number of replicates 2.0, Standard deviation 1.382 %
  inhibition: -5.78%

## Cc1nc(NC(=O)c2ccnn2C(C)C)c2cc[nH]c2n1
Concentration 50.0 uM, Number of replicates 2.0, Standard deviation 4.637 %
  inhibition: -2.64%
Concentration 100.0 uM, Number of replicates 2.0, Standard deviation 4.768 %
  inhibition: -4.35%

## O=C1CC[C@@H](CNC(=O)c2cnn3ccc(C4CCN(C(=O)c5ccccc5)CC4)cc23)N1
Concentration 49.75 uM, Number of replicates 2.0, Standard deviation 1.276 %
  inhibition: -2.32%
Concentration 99.5 uM, Number of replicates 2.0, Standard deviation 4.674 %
  inhibition: -1.47%

## Cn1cc([C@@H](Nc2ncnc3[nH]ccc23)C2CCC2)cn1
Concentration 49.75 uM, Number of replicates 2.0, Standard deviation 3.794 %
  inhibition: 78.1%
Concentration 99.5 uM, Number of replicates 2.0, Standard deviation 1.201 %
  inhibition: 91%

## Cc1cocc1C(=O)N(CCC(=O)N1CCNCC1)Cc1cccc(Cl)c1
Concentration 49.75 uM, Number of replicates 2.0, Standard deviation 0.438 %
  inhibition: 1.4%
Concentration 99.5 uM, Number of replicates 2.0, Standard deviation 0.13 %
  inhibition: 0.51%
